Values quoted from earlier work, collected in patent US20110274624A1, “CONTRAST AGENTS IN POROUS PARTICLES” (WILLIAM MARSH RICE UNIVERSITY, priority 2010, published 2011).
Where two headings read alike, the source gives them in different places.

| SMILES | r1 per Gd^3+ ion (1.41T) | r1 per Gd^3+ ion (1.5T) | longitudinal relaxivity r1 (field not stated) |
| --- | --- | --- | --- |
| CC(O)CN1CCN(CC(=O)[O-])CCN(CC(=O)[O-])CCN(CC(=O)[O-])CC1.[Gd+3] (stereo not shown) [Gd-HP-DO3A] | 3.2 (1. 41T) mM^−1s^−1 |  |  |
| O=C([O-])CN(CCN(CC(=O)[O-])CC(=O)[O-])CCN(CC(=O)[O-])CC(=O)[O-].[Gd+3] [MAG, Gd-DTPA] | 3.4 (1.41T) mM^−1s^−1 | ~4 mM⁻¹ s⁻¹ |  |
| O=C([O-])CN(CCN(CC(=O)[O-])CC(=O)[O-])CCN(CC(=O)[O-])C(COCc1ccccc1)C(=O)[O-].[Gd+3] (stereo not shown) [Gd-BOPTA] | 4.1 (1. 41T) mM^−1s^−1 |  |  |

Now from value to compound:

| r1 per Gd^3+ ion (1.41T) | r1 per Gd^3+ ion (1.5T) | longitudinal relaxivity r1 (field not stated) | SMILES |
| --- | --- | --- | --- |
| 3.6 (1. 41T) mM^−1s^−1 |  |  | CNC(=O)CN(CCN(CCN(CC(=O)[O-])CC(=O)NC)CC(=O)[O-])CC(=O)[O-].[Gd+3] [Gd-DTPA-BMA] |
| 3.1 (1.41T) mM^−1s^−1 |  |  | O=C([O-])CN1CCN(CC(=O)[O-])CCN(CC(=O)[O-])CCN(CC(=O)[O-])CC1.[Gd+3] [Gd-DOTA] |
|  |  | ~8 mM⁻¹ s⁻¹ | [Gd+3] [Gd^3+ ion] |
